Assay results: publication PMC3976407, “Inhibition of Fatty Acid Binding Proteins Elevates Brain Anandamide Levels and Produces Analgesia” (PLoS ONE, 2014)
Like-named read-outs stand apart in the source and are kept apart here.

How the values were obtained:
[1] = system: HeLa cells; test: Cytotoxicity, MTT colorimetric assay; type: cell-based; details: 24 hr incubation, n = 3
Description: Cytotoxicity of the FABP inhibitors SBFI26 and BMS309403 were examined using the MTT [3-(4,5-dimethylthiazol-2-yl)-2,5 diphenyl tetrazolium bromide] colorimetric assay. HeLa cells were seeded into 96-well plates (15,000 cells/well) and incubated for 24 hours at 37°C in DMEM supplemented with 10% FBS, penicillin (100 U/mL) and streptomycin (100 μg/mL). The cells were subsequently washed with PBS and treated with serum-free DMEM containing 10 nM to 1 mM SBFI26, BMS309403, or 5 mM hydrogen peroxide as a positive control. Following a 24 hr incubation, the cells were washed with PBS and treated with MTT (0.5 mg/mL in PBS) for 4 hrs. The cells were subsequently solubilized using DMSO and the absorbance was read at 562 nm in a microplate reader.

[2] = system: carrageenan-induced thermal hyperalgesia and paw edema in mice; test: Carrageenan-induced paw edema and thermal hyperalgesia; type: in vivo, mouse; details: 20 mg/kg, i.p.
Description: Paw edema was induced by injecting 1% λ-carrageenan (20 μl, in sterile saline) into the plantar surface of the left hind paw using a 30 gauge needle attached to a glass syringe (Hamilton Company). Paw diameters were measured before carrageenan injection and 4 or 24 hours after injection using digital electronic calipers (Fisher) and expressed to the nearest ± 0.01 mm. SBFI26, SBFI50, SBFI60, and SBFI62 were dissolved in DMSO:cremophor-EL:saline (4% DMSO:10% Cremophor-EL) and administered (20 mg/kg, i.p.) 60 min prior to injection of carrageenan. Receptor antagonists were injected 10 min before the inhibitors. Rimonabant and SR144528 (3 mg/kg, i.p.) were dissolved in ethanol:cremophor-EL:saline (1∶1∶18) while GW6471 (4 mg/kg, i.p.) was dissolved in DMSO:cremophor-EL:saline (2% DMSO:5% Cremophor-EL). Edema is reported as the change in paw diameter at 24 hr compared to the baseline. Thermal hyperalgesia was measured using the Hargreaves plantar apparatus (Ugo Basile) as previously reported.

[3] = target: FABP3 (Homo sapiens, UniProt P05413); test: NBD-stearate fluorescence displacement binding
Description: (§1) Inhibitory constant (Ki) values were elucidated utilizing NBD-stearate fluorescence displacement as described previously [9], [31]. The tests were performed in 96-well plates containing inhibitors (0.1 – 50.0 μM), FABP, and NBD-stearate. Fluorescence intensity was measured with a FLUOstar OPTIMA spectrofluorometer with excitation and emission wavelengths of 460 and 544 nm, respectively.

[4] = target: FABP7 (Homo sapiens, UniProt O15540); test: NBD-stearate fluorescence displacement binding
Description: as §1

[5] = system: rectal temperature in mice; test: Rectal temperature; type: in vivo, mouse; details: 20 mg/kg, i.p., baseline vs 90 min
Description: Rectal temperature was measured at baseline and 90 min following vehicle or drug administration, by inserting a thermocouple probe 1.5 cm into the rectum and the temperature was read using a thermocouple meter (Kent Scientific).

[6] = system: CB1; design: method as in PMID 23236415; details: previously demonstrated ref 31; cited from earlier work
[7] = Pharmacokinetics: SBFI26 levels in plasma and brain; type: in vivo; details: mouse, 20 mg/kg, i.p.; for half-life: ip
Description: Mice were injected with SBFI26 (20 mg/kg, i.p.) and were subsequently rapidly euthanized by decapitation at the indicated time points. The brain was rapidly removed and submerged in liquid nitrogen while the blood was collected into a K2-EDTA collection tube (Fisher). Plasma was isolated by centrifugation of the blood and 50 μl of the plasma was combined with 150 μl acetonitrile and centrifuged to remove the resulting protein pellet. Subsequently, 50 μl of water was added to 50 μl of the supernatant and 10 μl was injected for analysis into a Thermo TSQ Quantum Access Triple Quadrupole mass spectrometer (ThermoFisher). LC separation was achieved on a Luna C18 (150×2 mm) column. Mobile phase A consisted of 100% H20 while mobile phase B was composed of 100% acetonitrile. The flow rate was 200 μl/min. A linear gradient was used and started at 50% B for 2 min, then ramped to 100% B in 8 min., with a 2 min hold at 100% B. The system was then equilibrated at 50% B for a cycle time of 20 min. The mass spectrometer was operated in the negative ion mode with the high voltage set at −3.5 kV. The sheath pressure was 20 and the capillary was set to 270 °C. Multiple reaction monitoring (MRM) was used with the transition m/z 421 to 277 at 29 eV as the quantitation channel, while m/z 421 to 205 at 17 eV was employed as a conformation channel. SBFI26 quantification was performed using an external calibration curve.

[8] = system: acetic acid-induced writhing in mice; test: Acetic acid-induced writhing; type: in vivo, mouse
Description: Mice were acclimated to the laboratory environment for at least two hours and were habituated to the testing chamber for 30 min prior to acetic acid challenge. SBFI26, SBFI50, SBFI60, and SBFI62 (20 mg/kg) were administered via the subcutaneous route 60 min before acetic acid. Rimonabant, SR144528, GW6471, and naloxone were given 10 min before the inhibitors via the subcutaneous route. The mice subsequently received an i.p. injection of acetic acid (0.6% in sterile saline, 10 μl/g) and were placed in observation chambers. Abdominal stretches (marked by extension of the body and hind limbs) were counted for 20 min starting at 5 min post-injection.

Chain of FABP7 (O15540 whole entry, species assumed): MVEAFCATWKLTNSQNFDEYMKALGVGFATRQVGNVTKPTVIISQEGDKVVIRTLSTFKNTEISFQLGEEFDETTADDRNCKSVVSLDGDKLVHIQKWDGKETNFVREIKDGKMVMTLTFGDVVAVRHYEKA
Chain of FABP3 (P05413 whole entry, species assumed): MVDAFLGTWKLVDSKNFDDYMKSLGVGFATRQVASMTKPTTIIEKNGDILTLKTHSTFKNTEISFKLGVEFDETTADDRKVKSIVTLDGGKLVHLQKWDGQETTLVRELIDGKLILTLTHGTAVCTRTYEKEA

O=C(O)C1C(c2ccccc2)C(C(=O)Oc2cccc3ccccc23)C1c1ccccc1 (stereo not drawn) [SBFI26, alpha-2,4-diphenylcyclobutane-1,3-dicarboxylic acid mono-1-naphthyl ester]
Cytotoxicity _50 values [1]: 31.1 ± 4.1 µM | Effect upon carrageenan-induced paw edema [2]: reduced | Effect upon carrageenan-induced thermal hyperalgesia [2]: reduced | Ki [3]: 3900 ± 700 nM | Ki [4]: 400 nM | Rectal temperature [5]: does not reduce | Activation of CB1 [6]: does not activate | half-life ([7]; brain, read-out: Brain half-life (converted)): ~3 h | Brain levels relative to plasma levels [7]: lower | Time of peak brain level ([7]; brain): within one hour | Time of peak plasma level ([7]; plasma): within one hour | Time by which levels return to baseline ([7]; plasma and brain): ≤ 24 h | half-life ([7]; plasma, read-out: Plasma half-life (converted)): ~3 h | Effect upon acetic acid-induced writhing ([8]; 20 mg/kg, subcutaneous, 60 min before acetic acid): significantly reduced | Antinociceptive effects in the acetic acid test after pretreatment with PPARα antagonist GW6471 ([8]; GW6471 4 mg/kg): blocked | Antinociceptive effects in the acetic acid test after pretreatment with CB2 antagonist SR144528 ([8]; SR144528 3 mg/kg): failed to reverse | Dose of near maximal efficacy in acetic acid writhing ([8]; dose response analysis): 20 mg/kg | Antinociceptive effects in the acetic acid test after pretreatment with opioid antagonist naloxone ([8]; naloxone 2 mg/kg): failed to reverse | Antinociceptive effects in the acetic acid test after pretreatment with CB1 antagonist rimonabant ([8]; rimonabant 3 mg/kg 10 min before inhibitor): completely blocked
